Entries after “also recorded” stand apart in the source; their conditions may differ. Read-outs that look alike come from different tables or passages of the source.
Key:
Lgr5+ cells = assay: Lgr5+ Assay; assay type: cell-based; settings: Table 5
GSK3-alpha [1] = molecular target: T1, GSK3-alpha (Homo sapiens, UniProt P49840); settings: cited from earlier work; for GSK-3 alpha: Table 5
GSK3-alpha [2] = molecular target: T1, GSK3-alpha; assay: GSK3-alpha inhibitor potency (Tables 2 and 5); assay type: biochemical
GSK3-beta = GSK3-beta (Homo sapiens, UniProt P49841); settings: cited from earlier work
GSK3-beta, sequence (P49841 whole entry): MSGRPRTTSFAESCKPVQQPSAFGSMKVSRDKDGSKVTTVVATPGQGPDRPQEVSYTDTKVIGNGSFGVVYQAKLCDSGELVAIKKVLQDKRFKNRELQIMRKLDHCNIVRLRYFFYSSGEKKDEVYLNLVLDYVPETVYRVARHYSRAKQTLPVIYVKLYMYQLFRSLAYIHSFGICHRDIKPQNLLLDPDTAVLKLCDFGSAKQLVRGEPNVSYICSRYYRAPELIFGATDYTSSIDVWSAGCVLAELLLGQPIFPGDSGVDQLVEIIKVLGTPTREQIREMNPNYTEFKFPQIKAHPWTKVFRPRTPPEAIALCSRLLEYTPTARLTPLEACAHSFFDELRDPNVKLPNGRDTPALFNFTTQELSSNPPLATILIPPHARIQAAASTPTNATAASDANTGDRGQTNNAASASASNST

[3] = Perilymph valproic acid along the cochlea (sequential apical sampling) after systemic sodium valproate; assay type: in vivo; settings: guinea pig, perilymph at 3 hours, therapeutic level as determined in vitro on primary cochlear Lgr5 cells
[4] = Blood/plasma valproic acid levels after intravenous sodium valproate; assay type: in vivo; settings: guinea pig, i.v. 100 mg/mL sodium valproate at 20 μL/min for 60 minutes (120 mg, about 330 mg/kg); FIG. 2A
[5] = Perilymph valproic acid after systemic plus local administration versus local-only administration; assay type: in vivo; settings: guinea pig, i.v. 25 mg/mL sodium valproate plus 20 μL poloxamer formulation (sodium valproate 88.63 mg/mL, CHIR99021 3.14 mg/mL) at round window niche, perilymph at 3 hours; FIG. 4

T1 sequence (P49840 whole entry): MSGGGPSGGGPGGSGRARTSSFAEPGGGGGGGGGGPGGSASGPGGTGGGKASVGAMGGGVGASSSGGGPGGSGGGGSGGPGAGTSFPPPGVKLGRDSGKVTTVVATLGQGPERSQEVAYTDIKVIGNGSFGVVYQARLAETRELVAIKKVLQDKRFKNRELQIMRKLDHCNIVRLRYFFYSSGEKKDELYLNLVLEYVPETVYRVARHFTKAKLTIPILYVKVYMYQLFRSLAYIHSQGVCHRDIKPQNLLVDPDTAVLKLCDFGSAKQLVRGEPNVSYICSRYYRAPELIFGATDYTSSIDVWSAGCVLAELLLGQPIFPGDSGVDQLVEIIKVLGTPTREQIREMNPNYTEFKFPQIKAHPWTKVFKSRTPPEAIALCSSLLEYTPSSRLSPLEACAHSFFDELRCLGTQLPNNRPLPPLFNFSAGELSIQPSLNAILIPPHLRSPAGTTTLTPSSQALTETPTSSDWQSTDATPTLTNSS

Compound | Potency (nM) GSK3-alpha (GSK3-alpha [1]; Table 2) | Potency (nM) GSK3-beta (GSK3-beta; Table 2) | other results
N#Cc1ccc2c(c1)/C(=C1\C=CC(CN3CCOCC3)=CN1)C(=O)N2 [AZD1080, (Z)-3-(5-(morpholinomethyl)pyridin-2(1H)-ylidene)-2-oxoindoline-5-carbonitrile] | 6.9 nM | – | Lgr5 + Assay (Lgr5+ cells): 1 to 5 µM; GSK-3 alpha (GSK3-alpha [1]): 6.9 nM
COc1ccccc1[C@@H]1C2=C(CC(C)(C)CC2=O)N=C2NNC(C(F)(F)F)=C21 [BRD1172, (R)-4-(2-methoxyphenyl)-7,7-dimethyl-3-(trifluoromethyl)-1,2,4,6,7,8-hexahydro-5H-pyrazolo[3,4-b]quinolin-5-one] | – | – | Ratio of alpha to beta (GSK3-alpha [2]): 3.3; Potency (nM) GSK3-beta (GSK3-beta): 10 nM; Potency (nM) GSK3-alpha (GSK3-alpha [1]): 3 nM
CC1(C)CC(=O)C2=C(C1)Nc1n[nH]c(C(F)(F)F)c1[C@]2(C)c1ccccc1 [BRD1652, N-4,7,7-trimethyl-4-phenyl-3-(trifluoromethyl)-2,4,6,7,8,9-hexahydro-5H-pyrazolo[3,4-b]quinolin-5-one] | 0.4 nM | 4 nM | –
Cc1cnc(-c2cnc(NCCNc3ccc(C#N)cn3)nc2-c2ccc(Cl)cc2Cl)[nH]1 [CHIR99021, 6-[[2-[[4-(2,4-dichlorophenyl)-5-(5-methyl-1H-imidazol-2-yl)-2-pyrimidinyl]amino]ethyl]amino]-3-pyridinecarbonitrile] | – | – | Lgr5 + Assay (Lgr5+ cells): 2 to 6 µM
Cn1cc(C2=C(c3cccc(N)c3)C(=O)NC2=O)c2ccccc21 [Compound 3, 3-(3-aminophenyl)-4-(1-methyl-1H-indol-3-yl)-1H-pyrrole-2,5-dione] | 3 nM | 10 nM | –
CO[C@H]1CC[C@H](NC(=O)c2n[nH]cc2NC(=O)C2CCC(F)(F)CC2)CC1 [Compound 4a, 4-(4,4-difluorocyclohexane-1-carboxamido)-N-((1r,4r)-4-metboxycyclohexyl)-1H-pyrazole-3-carboxamide] | – | 8 nM | –
CO[C@H]1CC[C@H](NC(=O)c2n[nH]cc2NC(=O)c2ccc(N3CCN(C)CC3)cc2)CC1 [Compound 4t, N-((1r,4r)-4-methoxycyclohexyl)-4-(4-(4-methylpiperazin-1-yl)benzamido)-1H-pyrazole-3-carboxamide] | – | <5 nM | –
CO[C@H]1CC[C@H](NC(=O)c2n[nH]cc2NC(=O)c2ncoc2-c2ccccc2)CC1 [Compound 4z, N-(3-(((1r,4r)-4-methoxycyclohexyl)carbamoyl)-1H-pyrazol-4-yl)-5-phenyloxazole-4-carboxamide] | – | 5 nM | –
Cc1[nH]nc2c1C(c1cccc(F)c1)C1=C(CC(C)(C)CC1=O)N2 (stereo not drawn) [Compound 9, 4-(3-fluorophenyl)-3,7,7-trimethyl-2,4,6,7,8,9-hexahydro-5H-pyrazolo[3,4-b]quinolin-5-one] | 62 nM | 156 nM | –
Cc1ccccc1C1C2=C(CC(C)(C)CC2=O)Nc2n[nH]c(C)c21 (stereo not drawn) [Compound 11, 3,7,7-trimethyl-4-(o-tolyl)-2,4,6,7,8,9-hexahydro-5H-pyrazolo[3,4-b]quinolin-5-one] | 32 nM | 102 nM | –
Cc1[nH]nc2c1[C@](C)(c1ccccc1)C1=C(CC(C)(C)CC1=O)N2 [Compound 16, (S)-3,4,7,7-tetramethyl-4-phenyl-2,4,6,7,8,9-hexahydro-5H-pyrazolo[3,4-b]quinolin-5-one] | 8 nM | 26 nM | –
COc1ccc(-c2cnc3[nH]cc(/C=C/C(=O)NCc4ccncc4)cc2-3)cc1 [Compound 27, (E)-3-(3-(4-methoxyphenyl)-7H-pyrrolo[2,3-b]pyridin-5-yl)-N-(pyridin-4-ylmethyl)acrylamide] | 42 nM | 140 nM | –
c1ccc(Nc2ncc3nnn(-c4ccccc4)c3n2)cc1 [Compound 90, N,3-diphenyl-3H-[1,2,3]triazolo[4,5-d]pyrimidin-5-amine] | 330 nM | 628 nM | –
O=C(O)COc1ccc(Nc2ncc3nnn(-c4ccccc4)c3n2)cc1 [Compound 92, 2-(4-((3-phenyl-3H-[1,2,3]triazolo[4,5-d]pyrimidin-5-yl)amino)phenoxy)acetic acid] | 9 nM | 13 nM | –
Cc1ccc(C(=O)Nc2c[nH]nc2C(=O)NCCCOC(C)C)cn1 [GSK-3 Inhibitor XXII, 6-methyl-N-[3-[[3-(1-methylethoxy)propyl]carbamoyl]-1H-pyrazol-4-yl]pyridine-3-carboxamide] | 2.3 nM | – | Lgr5 + Assay (Lgr5+ cells): 0.2 to 1 µM; GSK-3 alpha (GSK3-alpha [1]): 2.3 nM
O=C1NC(=O)C(c2cnc3ccccn23)=C1c1cn2c3c(cc(F)cc13)CN(C(=O)N1CCCCC1)CC2 [LY2090314, 3-(9-fluoro-2-(piperidine-1-carbonyl)-1,2,3,4-tetrahydro-[1,4]diazepino[6,7,1-hi]indol-7-yl)-4-(imidazo[1,2-a]pyridin-3-yl)-1H-pyrrole-2,5-dione] | – | – | Lgr5 + Assay (Lgr5+ cells): 0.005 to 0.02 µM; GSK3-beta potency (GSK3-beta; Table 5): 0.9 nM; GSK-3 alpha (GSK3-alpha [1]): 2.1 nM
CCCC(CCC)C(=O)[O-].[Na+] [Sodium Valproate, sodium 2-propylpentanoate] | – | – | distribution and level of valproate in cochlear perilymph ([3]; i.v. 25 mg/mL sodium valproate at 20 μL/min for 60 min (about 26 mg valproate)): did not achieve therapeutic levels; distribution and level of valproate in cochlear perilymph (apex to base, serial samples 1-4) ([3]; i.v. 100 mg/mL sodium valproate at 20 μL/min for 60 min): Uniform distribution of valproate was observed throughout the cochlea at 3 hours; also recorded: uniform distribution and therapeutic levels; time at which plasma levels peaked [4]: ≤ 1 h
O=C1NC(=O)[C@@H](c2cn3c4c(cccc24)CCC3)[C@@H]1c1c[nH]c2ccccc12 [Tivantinib, (3R,4R)-3-(5,6-dihydro-4H-pyrrolo[3,2,1-ij]quinolin-1-yl)-4-(1H-indol-3-yl)pyrrolidine-2,5-dione] | 659 nM | 1865 nM | –
CCCC(CCC)C(=O)O [Valproic Acid, 2-propyl pentanoic acid] | – | – | perilymph valproic acid distribution and retention, systemic plus local versus local-only administration [5]: improved the drug distribution and retention in guinea pig cochlea
(3-aminopyrido[2,3-a]pyrrolo[3,4-c]carbazole-5,7(1H,6H)-dionato-κN^1,κN^12)carbonylchloro(2-pyridinemethanamine-κN^1,κN^2)-, (OC-6-24-A)-Ruthenium [lambda-OS1] | 0.9 nM | 6 nM | –
carbonyl(η^5-2,4-cyclopentadien-1-yl)(9-hydroxypyrido[2,3-a]pyrrolo[3,4-c]carbazole-5,7(1H,6H)-dionato-κN^1,κN^12)-Ruthenium [(R)-DW12] | 0.5 nM | 1 nM | –

From patent US20220133740A1, “VALPROIC ACID COMPOUNDS AND WNT AGONISTS FOR TREATING EAR DISORDERS” (Frequency Therapeutics, Inc., priority 2019, published 2022)
